Reference: patent US12187717B2, “Compound and use thereof in treating autoimmune diseases” (PARENCHYMA BIOTECH INC., priority 2022, dated 2025)

Assays:
[1] = test system: IL-6; assay: IL-6 production of A549 epithelial cells by IL-1β stimulation; format: cell-based, Human; settings: A549, 5 μM, 48 hours then IL-1β 24 hours, vs control
Procedure: In order to assess the inhibitory effects of production of IL-6 by the compounds of the present invention prepared as above, an IL-6 production test of epithelial cells by stimulation of IL-1β was performed.
After recovering A549 cells under culture in DMEM-fetal bovine serum (FBS) 10% medium and confirming that the survival rate is 97% or more through trypan blue staining, the recovered product was centrifuged at a speed of 1200 rpm for 5 minutes at room temperature, and the cells were prepared by resuspending them in DMEM-10% fetal bovine serum medium at 1×10^6 cells/3 ml. Thereafter, the cells were dispensed by 3 ml onto a 60 mm plate, and each dish was treated with 50 μl of Compounds 6, 9, 21, 32 and 39 at a concentration of 5 μM diluted in DMEM medium, and then cultured in a cell incubator (5% CO2 incubator) for 48 hours. Then, the cells were treated with 50 μl of human recombinant IL-1β at a concentration of 12.5 ng/ml diluted in DMEM medium, followed by culturing the same in a cell incubator (5% CO2 incubator) for 24 hours. As a control, 50 μl of 0.05% dimethylsulfoxide (DMSO)/DMEM medium was used for treatment.
(§1) The cultured cells were recovered to prepare an mRNA sample. […] From the separated RNA, cDNA was synthesized by reverse transcription, and the expression of CYP1A1 was confirmed through a real-time polymerase chain reaction (PCR) using iQ SYBR-Green Supermix (Bio-rad) in a CFX96 (Bio-rad) detection system. […] Herein, one (1) fold was set using the control.
(§2) The real-time polymerase chain reaction was performed under the conditions of 45 cycles at an annealing temperature of 58° C., wherein the following primer sequences were used.

[2] = test system: Foxp3-expressing regulatory T cells (Treg); assay: Production of Foxp3-expressing regulatory T cells from naive CD4 T cells (flow cytometry); format: cell-based, C57BL/6 mice; settings: 2.5 μM, 3 days, compared to Vehicle
Procedure: The spleen of C57BL/6 mice (8 to 12 weeks old, female) was excised, pulverized by adding RPMI medium, and then passed through a 40 μm cell strainer (BD Falcon), thereby obtaining a single cell suspension. The single cell suspension was centrifuged (1200 rpm, 5 minutes), and after discarding the supernatant, 1 ml of ACK lysis buffer was added, followed by stirring for 1 minute and then washing the same with RPMI medium. After the single cell suspension was centrifuged, T-cells were separated using a Mouse CD4 Naive T cell Enrichment Kit (Invitrogen). The separated T-cells were prepared by resuspending them in RPMI-fetal bovine serum (FBS) 10%+2-ME (mercaptoethanol) medium at 1×10^6/ml. For T-cell activation, 5 μg/ml anti-CD3 (eBioscience™) was dispensed by 100 μl onto a 96-well plate, reacted in a cell incubator (37° C., 5% CO2 incubator) for 4 hours, and washed with phosphate buffered saline to prepare the plate. The T-cells were dispensed by 200 μl onto the prepared plate, and each well was treated with 2 μg/ml of anti-CD28 (eBioscience™), 2 ng/ml of TGFβ-1 (R&D systems), and 100 U/ml of IL-2. Each 5 μl of Compounds 6 and 9 at a concentration of 2.5 μM diluted in RPMI-fetal bovine serum 10%+2-ME medium was used for treatment, followed by culturing the same in a cell incubator (37° C., 5% CO2 incubator) for 3 days. […]
In order to confirm the expression of Foxp3 protein, the recovered cells were placed in a 5 ml FACS tube (BD Falcon) and washed with 1 ml of phosphate buffered saline. […] The cells were washed twice with the Permeabilization buffer, suspended in 0.3 ml of FACS buffer, and measured by flow cytometry.
The promotion effects of Compound 6 and Comparative Example 1 on the production of “FoxP3-expressing regulatory T cells,” which play an important role in maintaining immune tolerance, were compared (FIG. 24). […] After 3 days, in order to confirm the effects of production of the regulatory T cells, the cultured cells were recovered and Foxp3 protein expression was measured in the same manner as in FIG. 4.

[3] = test system: CYP1A1; assay: Induction of CYP1A1 protein expression in HepG2 (7-ethoxyresorufin/resorufin); format: cell-based, Human; settings: HepG2, 1 μM, 24 hours, vs control (vehicle)
Procedure: After recovering HepG2 under culture in DMEM-fetal bovine serum (FBS) 10% medium and then confirming that the survival rate is 97% or more through trypan blue staining, the recovered product was centrifuged at a speed of 1200 rpm for 5 minutes at room temperature, and the cells were prepared by resuspending them in DMEM-fetal calf serum 10% medium at 1.5×10^5 cells/ml.
Thereafter, the cells were dispensed onto a 96-well plate by 200 μl, and each plate was treated with 3 μl of Compounds 6, 21, 32 and 39 at a concentration of 1 μM diluted in DMEM medium, and then cultured in a cell incubator (5% CO2 incubator) for 24 hours. As a control, 3 μl of 0.05% dimethylsulfoxide (DMSO)/DMEM medium was used for treatment.
After 24 hours, the medium of the plate was discarded, washed with dPBS, treated with 100 μl of 2 μM 7-ethoxyresorufin, and cultured in a cell incubator (5% CO2 incubator) for 30 minutes. After 30 minutes, each 75 μl of fluorescamine (150 μg/ml) was treated, then resorufine excitation was measured at 535 nm and emission at 590 nm. The standard curve was measured and used with 0 to 50 pmol of resorufin solution.
After measurement, all solutions were removed, followed by treating the same with 25 μl of 0.5 M sodium hydroxide (NaOH), the cells were scraped and reacted in a shaker at room temperature for 15 minutes.
After 15 minutes, protein was quantified using a Bradford method, and a value was obtained using a calculation formula (sample resorufin amount/sample protein amount), and then one (1) fold was set using the control.

[4] = test system: CYP1A1; assay: Induction of CYP1A1 mRNA expression in HepG2 (real-time PCR); format: cell-based, Human; settings: HepG2, 1 μM, 24 hours, vs control (vehicle)
Procedure: In order to confirm target specificity of the compounds of an embodiment of the present invention prepared as above, it was confirmed whether the expression levels of CYP1A1 mRNA and CYP1A1 protein, which are AHR target genes, were increased.
After recovering HepG2 under culture in DMEM-fetal bovine serum (FBS) 10% medium and then confirming that the survival rate is 97% or more through trypan blue staining, the recovered product was centrifuged at a speed of 1200 rpm for 5 minutes at room temperature, and the cells were prepared by resuspending them in DMEM-fetal calf serum 10% medium at 3×10^5 cells/ml. Thereafter, the cells were dispensed onto a 60 mm dish by 3 ml, and each dish was treated with 50 μl of Compounds 6, 21, 32 and 39 at a concentration of 1 μM diluted in DMEM medium, and then cultured in a cell incubator (5% CO2 incubator) for 24 hours. As a control, 50 μl of 0.05% dimethylsulfoxide (DMSO)/DMEM medium was used for treatment.
as §1, §2

[5] = molecular target: T1, CYP1A2 (Homo sapiens, UniProt P05177); assay: CYP isoenzyme activity; format: in vitro ADME; settings: 0.1 μM
T1 sequence (P05177 1-516): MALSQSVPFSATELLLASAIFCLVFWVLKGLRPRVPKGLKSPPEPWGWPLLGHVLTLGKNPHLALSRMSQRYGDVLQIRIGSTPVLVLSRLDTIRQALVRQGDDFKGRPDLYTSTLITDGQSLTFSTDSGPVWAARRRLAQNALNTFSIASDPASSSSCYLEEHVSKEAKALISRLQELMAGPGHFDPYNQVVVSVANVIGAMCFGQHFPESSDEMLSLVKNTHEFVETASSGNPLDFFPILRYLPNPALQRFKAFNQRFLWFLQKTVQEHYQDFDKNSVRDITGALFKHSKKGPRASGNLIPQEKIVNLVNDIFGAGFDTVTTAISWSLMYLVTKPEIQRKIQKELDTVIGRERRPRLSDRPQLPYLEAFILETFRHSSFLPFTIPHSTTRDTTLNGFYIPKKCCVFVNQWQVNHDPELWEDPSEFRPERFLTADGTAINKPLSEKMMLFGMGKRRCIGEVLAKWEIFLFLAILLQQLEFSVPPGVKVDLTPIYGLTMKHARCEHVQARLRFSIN

[6] = molecular target: CYP2C19 (Homo sapiens, UniProt P33261); assay: CYP isoenzyme activity; format: in vitro ADME; settings: 0.1 μM
Chain of CYP2C19 (P33261 whole entry): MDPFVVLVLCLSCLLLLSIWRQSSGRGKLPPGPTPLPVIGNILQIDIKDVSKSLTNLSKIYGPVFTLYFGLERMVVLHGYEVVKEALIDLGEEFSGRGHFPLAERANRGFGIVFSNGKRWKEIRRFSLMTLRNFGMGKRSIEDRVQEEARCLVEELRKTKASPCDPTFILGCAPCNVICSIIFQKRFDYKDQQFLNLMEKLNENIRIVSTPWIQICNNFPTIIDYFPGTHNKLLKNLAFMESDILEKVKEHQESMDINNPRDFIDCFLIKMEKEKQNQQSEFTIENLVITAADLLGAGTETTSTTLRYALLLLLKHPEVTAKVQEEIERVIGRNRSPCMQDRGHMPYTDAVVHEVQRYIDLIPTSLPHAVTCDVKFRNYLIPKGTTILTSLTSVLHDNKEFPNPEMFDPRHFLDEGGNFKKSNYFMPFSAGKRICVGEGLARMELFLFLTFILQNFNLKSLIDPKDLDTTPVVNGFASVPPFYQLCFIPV

[7] = molecular target: CYP2C9 (Homo sapiens, UniProt P11712); assay: CYP isoenzyme activity; format: in vitro ADME; settings: 0.1 μM
Chain of CYP2C9 (P11712 whole entry): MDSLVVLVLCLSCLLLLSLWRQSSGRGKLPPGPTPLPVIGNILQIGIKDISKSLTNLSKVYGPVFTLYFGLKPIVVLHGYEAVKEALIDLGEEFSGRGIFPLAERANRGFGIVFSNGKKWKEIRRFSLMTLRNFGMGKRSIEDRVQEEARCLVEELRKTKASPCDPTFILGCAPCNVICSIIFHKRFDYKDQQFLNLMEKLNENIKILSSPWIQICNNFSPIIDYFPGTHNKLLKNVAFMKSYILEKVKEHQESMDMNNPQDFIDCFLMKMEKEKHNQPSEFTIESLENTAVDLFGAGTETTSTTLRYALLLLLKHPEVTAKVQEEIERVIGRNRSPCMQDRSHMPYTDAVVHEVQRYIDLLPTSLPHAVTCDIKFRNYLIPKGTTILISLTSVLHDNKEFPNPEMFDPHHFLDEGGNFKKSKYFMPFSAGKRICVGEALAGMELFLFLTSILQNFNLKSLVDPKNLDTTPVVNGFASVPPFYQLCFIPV

Structure (SMILES)	IL-6 production of A549 by IL-1β stimulation [1]	production of Foxp3-expressing regulatory T cells [2]	CYP1A1 protein expression level [3]	CYP1A1 mRNA expression level [4]	CYP1A2 activity [5]	CYP2C19 activity [6]	CYP2C9 activity [7]
CN1CCN(c2ccc3nc(NC(=O)Cc4c[nH]c5ccc(Cl)cc45)sc3c2)CC1 [Compound 9, 2-(5-chloro-1H-indol-3-yl)-N-(6-(4-methylpiperazine-1-yl)benzo[d]thiazol-2-yl)acetamide]	significantly reduced	markedly increased					
Cn1cc(CC(=O)Nc2nc3ccc(N4CCOCC4)cc3s2)c2cc(Cl)ccc21 [Compound 21, 2-(5-chloro-1-methyl-1H-indol-3-yl)-N-(6-morpholinobenzo[d]thiazol-2-yl)acetamide]	significantly reduced		significantly higher	significantly induced			
O=C(Cc1c[nH]c2ccc(O)cc12)Nc1nc2ccc(N3CCOCC3)cc2s1 [Compound 32, 2-(5-hydroxy-1H-indol-3-yl)-N-(6-morpholinobenzo[d]thiazol-2-yl)acetamide]	significantly reduced		significantly higher	significantly induced			
COc1ccc2[nH]cc(CC(=O)Nc3nc4ccc(N5CCOCC5)cc4s3)c2c1 [Compound 39, 2-(5-methoxy-1H-indol-3-yl)-N-(6-morpholinobenzo[d]thiazol-2-yl)acetamide]	significantly reduced		significantly higher	significantly induced			
CC(=O)N1CCN(c2ccc(OCC3COC(Cn4ccnc4)(c4ccc(Cl)cc4Cl)O3)cc2)CC1 (centres unmarked) [Ketoconazole]					95.4 % of Control Activity	96.7 % of Control Activity	98.6 % of Control Activity
